Results from ChEMBL document CHEMBL1136844, “Discovery of novel small molecule cell type-specific enhancers of NF-kappaB nuclear translocation” (Bioorg Med Chem Lett, 2009).
The source made the active and inactive calls. No cut-off for these calls is given here.

How the values were obtained:
[1] = biological target: Transcription factor p65 (Homo sapiens) (UniProt Q04206); test: Potentiation of TNF-alpha-induced NF-kappaB p65 nuclear translocation in HUVEC cells by immunostaining; assay type: cell-based
Sequence of Transcription factor p65 (Homo sapiens) (Q04206 whole entry): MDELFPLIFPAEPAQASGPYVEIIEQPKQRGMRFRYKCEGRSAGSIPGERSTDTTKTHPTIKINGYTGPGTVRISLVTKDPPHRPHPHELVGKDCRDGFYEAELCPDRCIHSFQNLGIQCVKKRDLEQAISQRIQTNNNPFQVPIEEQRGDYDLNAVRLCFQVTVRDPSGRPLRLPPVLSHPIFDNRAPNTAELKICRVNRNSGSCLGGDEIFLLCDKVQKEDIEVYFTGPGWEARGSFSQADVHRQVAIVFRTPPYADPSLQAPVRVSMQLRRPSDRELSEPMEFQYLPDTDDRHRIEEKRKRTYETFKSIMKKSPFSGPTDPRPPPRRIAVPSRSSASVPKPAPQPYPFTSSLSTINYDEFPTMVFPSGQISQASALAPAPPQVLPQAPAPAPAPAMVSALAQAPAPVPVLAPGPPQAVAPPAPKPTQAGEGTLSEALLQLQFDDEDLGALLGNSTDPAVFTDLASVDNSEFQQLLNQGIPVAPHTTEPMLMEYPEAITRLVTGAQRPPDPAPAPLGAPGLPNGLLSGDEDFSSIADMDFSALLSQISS

[2] = biological target: Transcription factor p65 (Homo sapiens) (UniProt Q04206); test: Induction of NF-kappaB p65 nuclear translocation in HUVEC cells by immunostaining; assay type: cell-based

Compound | Activity [1] | Activity [2]
COc1ccc2nc(-c3cccs3)nc(NCCN3CCOCC3)c2c1 | inactive | inactive
COc1ccc2nc(-c3cccs3)nc(N3CCOCC3)c2c1 | inactive | inactive
COc1ccc2nc(-c3cccs3)nc(NNS(=O)(=O)c3ccc(C)cc3)c2c1 | inactive | inactive
COc1ccc2nc(-c3cccs3)nc(NCc3ccccc3Cl)c2c1 | inactive | inactive
COc1ccc(CCNc2nc(-c3cccs3)nc3ccc(OC)cc23)cc1 | inactive | inactive
COc1cccc2nc(-c3cccs3)nc(NN3C(=O)CC(C)C3=O)c12 (configuration not stated) | inactive | inactive
